Measurements from article PMC5378280 (Cancer Science, 2017).

How the values were obtained:
[1] = Pharmacokinetics of carfilzomib in plasma; type: in vivo, human; settings: compared with carfilzomib monotherapy study
Japanese RRMM patients = settings: carfilzomib monotherapy; cited from earlier work

- Effect of lenalidomide and dexamethasone on carfilzomib pharmacokinetics [1]: did not appear to be affected
Structure (SMILES): CC(C)C[C@H](NC(=O)[C@H](CCc1ccccc1)NC(=O)CN1CCOCC1)C(=O)N[C@@H](Cc1ccccc1)C(=O)N[C@@H](CC(C)C)C(=O)[C@@]1(C)CO1 [carfilzomib]
- ORR (Japanese RRMM patients): 22.5%
